From patent US11072780B2, “Method of differentiating human pluripotent cells into cardiac fibroblasts” (Wisconsin Alumni Research Foundation, priority 2016, dated 2021)

Legend:
hPSCs [1] = assay: Flow cytometry of stage-specific progenitors in GiWi protocol; assay type: cell-based, human; settings: after 24 hours of treatment
Method: Differentiation of hPSCs to cardiomyocytes using GiWi protocol: Human PSCs were dissociated with 1 ml/well Versene solution at 37° C. for 5 minutes, and seeded on Matrigel™ coated 6-well plates at the density of 1.5×10^6 cells/well in mTeSR1 medium supplemented with 10 μM ROCK inhibitor (Y-27632) (Tocris). Cells were cultured for 5-6 days in mTeSR1 medium until the cells reached 100% confluence when differentiation started (day 0). At day 0, the medium was changed to 2.5 ml RPMI+B27 without insulin (Invitrogen) and supplemented with 12 μM CHIR99021 (Tocris) and cells were treated in this medium for 24 hrs (day 1). At day 1, medium was changed to 3 ml RPMI+B27 without insulin and cells were cultured in this medium for 48 hrs (day 3). […]
Flow Cytometry: Cells were detached from cell culture plates by incubation with 0.25% trypsin-EDTA (Invitrogen) plus 2% chick serum (Sigma) for 5 minutes at 37° C. […] Cells were counted and 0.5-1 million cells were used as the sample size for labeling. […] Data were collected on a FACSCalibur™ flow cytometer (Beckton Dickinson) and analyzed using FlowJo™ software.
Biphasic modulation of the Wnt signaling pathway with small molecules is sufficient to direct the differentiation of monolayer cultured hPSCs to cardiomyocytes^21. […] We first determined the stage-specific mesodermal and cardiac progenitor populations generated by this small molecule (GiWi) protocol^22. […]

hPSCs [2] = assay: Quantitative RT-PCR time course of GiFGF protocol; assay type: cell-based, human; settings: qRT-PCR, peaking at day 1
Method: Differentiation of hPSCs to cardiac fibroblasts: Human PSCs were dissociated with 1 ml/well Versene solution (Invitrogen) at 37° C. for 5 minutes, and seeded on Matrigel™ (GFR, BD Biosciences) coated 6-well plates at the density of 1.5×10^6 cells/well in mTeSR1 medium supplemented with 10 μM ROCK inhibitor (Y-27632) (Tocris). Cells were cultured for 5-6 days in mTeSR1 medium with medium change daily until the cells reached 100% confluence when differentiation started (day 0). At day 0, the medium was changed to 2.5 ml RPMI+B27 without insulin (Invitrogen) and supplemented with 12 μM CHIR99021 (Tocris) and cells were treated in this medium for 24 hrs (day 1). At day 1, medium was changed to 3 ml RPMI+B27 without insulin and cells were cultured in this medium for another day (day 2). At day 2, the medium was changed to 2.5 ml of the defined fibroblast culture medium (Table 1) supplemented with bFGF (WiCell). Methods using L-glutamine in place of GlutaMAX were also successful. […]
RT-PCR and quantitative RT-PCR: Cell samples were collected using 0.25% trypsin-EDTA (Invitrogen) to remove the cells from cell culture plates. […] Quantitative RT-PCR (Q-PCR) was performed using Taqman PCR Master Mix and Gene Expression Assays (Applied Biosystems) in triplicate for each sample and each gene. […]

[3] = test system: hPSC-derived cardiac mesodermal progenitors; assay: Cardiac fibroblast differentiation induced by bFGF at stage-specific progenitors, flow cytometry at 20 days; assay type: cell-based
Method: Differentiation of hPSCs to cardiac fibroblasts: Human PSCs were dissociated with 1 ml/well Versene solution (Invitrogen) at 37° C. for 5 minutes, and seeded on Matrigel™ (GFR, BD Biosciences) coated 6-well plates at the density of 1.5×10^6 cells/well in mTeSR1 medium supplemented with 10 μM ROCK inhibitor (Y-27632) (Tocris). Cells were cultured for 5-6 days in mTeSR1 medium with medium change daily until the cells reached 100% confluence when differentiation started (day 0). At day 0, the medium was changed to 2.5 ml RPMI+B27 without insulin (Invitrogen) and supplemented with 12 μM CHIR99021 (Tocris) and cells were treated in this medium for 24 hrs (day 1). At day 1, medium was changed to 3 ml RPMI+B27 without insulin and cells were cultured in this medium for another day (day 2). At day 2, the medium was changed to 2.5 ml of the defined fibroblast culture medium (Table 1) supplemented with bFGF (WiCell). Methods using L-glutamine in place of GlutaMAX were also successful. Cells were fed every other day and cultured until day 20 for flow cytometry analysis and subculture of cardiac fibroblasts.
Flow Cytometry: Cells were detached from cell culture plates by incubation with 0.25% trypsin-EDTA (Invitrogen) plus 2% chick serum (Sigma) for 5 minutes at 37° C. Cells were vortexed to disrupt the aggregates followed by neutralization by adding equal volume of EB20 medium (Zhang et al., Circ Res. 2009). Cells were counted and 0.5-1 million cells were used as the sample size for labeling. Cells were fixed in 1% paraformaldehyde in a 37° C. water bath for 10 minutes in the dark. For labeling intracellular markers, cells were permeabilized in ice-cold 90% methanol for 30 minutes on ice. Cells were washed once in FACS buffer (PBS without Ca/Mg2^+, 0.5% BSA, 0.1% NaN3), centrifuged and resuspended in about 50 μl FACS buffer with (for intracellular markers) or without 0.1% Triton X-100. For labeling surface markers, appropriate amounts of the conjugated antibodies were added according to the manufacturer's instruction to the cells in FACS buffer to make the final volume of 100 μl with FACS buffer, and incubated in the dark for 30 minutes at room temperature. Cells were washed once with 3 ml FACS buffer and resuspended in 300-500 μl FACS buffer for analysis. […] Data were collected on a FACSCalibur™ flow cytometer (Beckton Dickinson) and analyzed using FlowJo™ software.
Our goal was to bias the differentiation to generate cardiac fibroblasts rather than cardiomyocytes. […] Following 20 days of differentiation, cells were analyzed by flow cytometry using a specific fibroblast antibody (mouse anti-human fibroblast, clone TE-7) and an antibody to sarcomeric myosin (MF20) expressed in cardiomyocytes. […]

Row | Compound | Brachyury expression (hPSCs [1]) | early mesodermal gene T expression (hPSCs [2]) | bFGF concentration at which fibroblast marker positive cells peaked ([3]; added on day 2 of differentiation) [ng/mL] | fibroblast marker positive cells (clone TE-7) ([3]; bFGF 0-125 ng/ml in CFBM, 20 days of differentiation, flow cytometry) | cell death ([3]; higher concentration of bFGF added on day 3 or day 4, after day 6 of differentiation) | generation of MF20+ cardiomyocytes ([3]; medium change and bFGF added on day 2 or day 3)
1 | Cc1c[nH]c(-c2cnc(NCCNc3ccc(C#N)cn3)nc2-c2ccc(Cl)cc2Cl)n1 [CHIR, CHIR99021] | expressed in almost all cells | transiently up-regulated | – | – | – | –
2 | bFGF: fibroblast growth factor (WiCell) added to the defined fibroblast medium | – | – | 75 | concentration-dependent increase | significant cell death | effectively prevented
